HELM strings list units from the 5' end as sugar, base in round brackets, then linkage (d deoxyribose, r ribose, m 2'-O-methyl, p phosphodiester). Strings are as the collection lists them, not checked against the first reports. ss, as = sense and antisense strand; [lna] = locked nucleic acid (LNA); [hna] = hexitol nucleic acid; [s4r] = 4'-thioribose; [fl2r] = 2'-fluoro
settings: siRNA
Further: test system not given here.

**Q.** With “RNA1{r(U)p.m(U)p.r(A)p.r(A)p.r(A)p.r(G)p.r(G)p.r(G)p.r(C)p.r(G)p.r(A)p.r(G)p.r(A)p.r(A)p.r(G)p.r(A)p.r(C)p.r(C)p.r(G)p.r(T)p.r(T)}|RNA2{r(C)p.r(G)p.r(G)p.r(U)p.r(C)p.r(U)p.r(U)p.r(C)p.r(U)p.r(C)p.r(G)p.r(C)p.r(C)p.r(C)p.r(U)p.r(U)p.m(U)p.r(A)p.r(A)p.r(T)p.r(T)}$$$RNA1{StrandType:ss}|RNA2{StrandType:as}$” as the substance, how does the target mRNA knockdown read?
**A.** 87%

**Q.** For “RNA1{m(G)p.r(G)p.m(U)p.r(A)p.m(G)p.r(A)p.m(A)p.r(U)p.m(A)p.r(G)p.m(G)p.r(U)p.m(U)p.r(U)p.m(U)p.r(C)p.m(C)p.r(C)p.m(C)p.r(T)p.r(T)}|RNA2{r(G)p.r(G)p.r(G)p.r(G)p.r(A)p.r(A)p.r(A)p.r(A)p.r(C)p.r(C)p.r(U)p.r(A)p.r(U)p.r(U)p.r(C)p.r(U)p.r(A)p.r(C)p.r(C)p.r(T)p.r(T)}$$$RNA1{StrandType:ss}|RNA2{StrandType:as}$”, which target mRNA knockdown is on record?
**A.** 11%

**Q.** For “RNA1{r(C)p.r(G)p.r(A)p.r(A)p.r(A)p.r(G)p.[fl2r](U)p.r(G)p.[fl2r](U)p.r(A)p.r(U)p.r(C)p.r(C)p.r(G)p.r(A)p.r(A)p.r(G)p.r(A)p.r(C)p.r(T)p.r(T)}|RNA2{r(G)p.r(U)p.r(C)p.r(U)p.r(U)p.r(C)p.r(G)p.r(G)p.r(A)p.[fl2r](U)p.r(A)p.[fl2r](C)p.r(A)p.r(C)p.r(U)p.r(U)p.r(U)p.r(C)p.r(G)p.r(T)p.r(T)}$$$RNA1{StrandType:ss}|RNA2{StrandType:as}$”, which target mRNA knockdown is on record?
**A.** 75%

**Q.** With “RNA1{[hna](G)p.[hna](A)p.[hna](C)p.r(G)p.r(U)p.r(A)p.r(A)p.r(A)p.r(C)p.r(G)p.r(G)p.r(C)p.r(C)p.r(A)p.r(C)p.r(A)p.r(A)p.[hna](G)p.[hna](U)p.[hna](U)p.d(T)}|RNA2{[fl2r](A)p.m(C)p.[fl2r](U)p.m(U)p.[fl2r](G)p.m(U)p.[fl2r](G)p.m(G)p.[fl2r](C)p.m(C)p.[fl2r](G)p.m(U)p.[fl2r](U)p.m(U)p.[fl2r](A)p.m(C)p.[fl2r](G)p.m(U)p.[fl2r](C)p.m(G)p.[fl2r](C)}$$$RNA1{StrandType:ss}|RNA2{StrandType:as}$” as the substance, how does the target mRNA knockdown read?
**A.** 81.8%

**Q.** For “RNA1{r(A)p.r(U)p.m(C)p.r(A)p.m(C)p.r(A)p.r(A)p.r(A)p.r(C)p.r(C)p.r(C)p.r(C)p.m(U)p.r(A)p.r(G)p.r(A)p.r(G)p.r(G)p.r(G)p.r(T)p.r(T)}|RNA2{r(C)p.r(C)p.r(C)p.r(U)p.r(C)p.m(U)p.r(A)p.m(G)p.r(G)p.r(G)p.r(G)p.r(U)p.r(U)p.r(U)p.r(G)p.m(U)p.r(G)p.r(A)p.r(U)p.r(T)p.r(T)}$$$RNA1{StrandType:ss}|RNA2{StrandType:as}$”, which target mRNA knockdown is on record?
**A.** 27%

**Q.** With “RNA1{r(G)p.r(A)p.r(G)p.r(A)p.r(G)p.r(A)p.r(G)p.r(A)p.r(C)p.r(G)p.r(G)p.r(U)p.r(G)p.r(G)p.r(A)p.r(A)p.r(G)p.r(A)p.r(A)p.r(T)p.r(T)}|RNA2{r(U)p.r(U)p.r(C)p.r(U)p.r(U)p.r(C)p.r(C)p.m(A)p.r(C)p.r(C)p.r(G)p.r(U)p.r(C)p.r(U)p.r(C)p.r(U)p.r(C)p.r(U)p.r(C)p.r(T)p.r(T)}$$$RNA1{StrandType:ss}|RNA2{StrandType:as}$” as the substance, how does the target mRNA knockdown read?
**A.** 74%

**Q.** Which target mRNA knockdown does the source give for “RNA1{r(C)p.r(G)p.r(U)p.r(A)p.r(C)p.r(G)p.r(C)p.r(G)p.r(G)p.r(A)p.r(A)p.r(U)p.r(A)p.r(C)p.r(U)p.r(U)p.r(C)p.r(G)p.r(A)p.r(T)p.r(T)}|RNA2{[s4r](U)p.[s4r](C)p.[s4r](G)p.[s4r](A)p.[s4r](A)p.[s4r](G)p.r(U)p.r(A)p.r(U)p.r(U)p.r(C)p.r(C)p.r(G)p.r(C)p.r(G)p.r(U)p.r(A)p.r(C)p.r(G)p.r(T)p.r(T)}$$$RNA1{StrandType:ss}|RNA2{StrandType:as}$” here?
**A.** 70.9%

**Q.** Which target mRNA knockdown does the source give for “RNA1{r(C)p.r(U)p.r(U)p.r(A)p.r(C)p.r(G)p.r(C)p.r(U)p.r(G)p.r(A)p.r(G)p.r(U)p.r(A)p.r(C)p.r(U)p.r(U)p.r(C)p.r(G)p.r(A)p.r(T)p.r(T)}|RNA2{r(T)p.r(C)p.r(G)p.r(A)p.r(A)p.r(G)p.r(U)p.r(A)p.r(C)p.r(U)p.r(C)p.r(A)p.r(G)p.r(C)p.r(G)p.r(U)p.[lna](A)p.r(A)p.r(G)p.[lna](T)p.[lna](T)}$$$RNA1{StrandType:ss}|RNA2{StrandType:as}$” here?
**A.** 96%

**Q.** Which target mRNA knockdown does the source give for “RNA1{m(A)p.m(A)p.r(C)p.r(C)p.r(C)p.m(A)p.r(C)p.r(C)p.m(A)p.r(C)p.m(A)p.r(G)p.r(C)p.m(U)p.m(A)p.r(G)p.m(A)p.m(A)p.r(C)p.m(U)p.m(U)}|RNA2{r(A)p.r(A)p.r(G)p.r(U)p.r(U)p.r(C)p.r(U)p.r(A)p.r(G)p.r(C)p.r(U)p.r(G)p.r(U)p.r(G)p.r(G)p.r(U)p.r(G)p.r(G)p.r(G)p.r(U)p.r(U)}$$$RNA1{StrandType:ss}|RNA2{StrandType:as}$” here?
**A.** 51%

**Q.** Which target mRNA knockdown does the source give for “RNA1{r(A)p.r(A)p.r(A)p.r(G)p.r(C)p.r(G)p.r(G)p.r(U)p.r(G)p.r(G)p.r(A)p.r(U)p.r(C)p.r(A)p.r(G)p.r(C)p.r(U)p.r(C)p.r(U)p.r(T)p.r(T)}|RNA2{r(A)p.r(G)p.r(A)p.r(G)p.r(C)p.m(U)p.r(G)p.r(A)p.r(U)p.r(C)p.m(C)p.r(A)p.r(C)p.r(C)p.r(G)p.r(C)p.r(U)p.r(U)p.r(U)p.r(T)p.r(T)}$$$RNA1{StrandType:ss}|RNA2{StrandType:as}$” here?
**A.** 67%

**Q.** With “RNA1{m(C)p.r(U)p.m(C)p.r(C)p.m(G)p.r(A)p.m(C)p.r(A)p.m(G)p.r(A)p.m(U)p.r(G)p.m(A)p.r(A)p.m(G)p.r(G)p.m(A)p.r(A)p.m(A)p.r(T)p.r(T)}|RNA2{r(U)p.r(U)p.r(U)p.r(C)p.r(C)p.r(U)p.r(U)p.r(C)p.m(A)p.r(U)p.r(C)p.r(U)p.r(G)p.r(U)p.r(C)p.r(G)p.r(G)p.m(A)p.r(G)p.r(T)p.r(T)}$$$RNA1{StrandType:ss}|RNA2{StrandType:as}$” as the substance, how does the target mRNA knockdown read?
**A.** 46%

**Q.** With “RNA1{m(A)p.r(G)p.m(C)p.r(C)p.m(A)p.r(C)p.m(A)p.r(U)p.m(U)p.r(U)p.m(C)p.r(U)p.m(A)p.r(G)p.m(G)p.r(A)p.m(G)p.r(A)p.r(U)p.r(T)p.r(T)}|RNA2{r(A)p.r(U)p.r(C)p.r(U)p.r(C)p.r(C)p.r(U)p.r(A)p.r(G)p.r(A)p.r(A)p.r(A)p.r(U)p.r(G)p.r(U)p.r(G)p.r(G)p.r(C)p.r(U)p.r(T)p.r(T)}$$$RNA1{StrandType:ss}|RNA2{StrandType:as}$” as the substance, how does the target mRNA knockdown read?
**A.** 19%

**Q.** Which target mRNA knockdown does the source give for “RNA1{r(A)p.r(G)p.r(A)p.r(G)p.r(A)p.r(A)p.r(G)p.r(G)p.r(G)p.[fl2r](C)p.r(G)p.r(U)p.r(C)p.r(U)p.r(C)p.[fl2r](U)p.r(A)p.[fl2r](C)p.r(A)p.r(T)p.r(T)}|RNA2{[fl2r](U)p.r(G)p.[fl2r](U)p.r(A)p.r(G)p.r(A)p.r(G)p.r(A)p.r(C)p.r(G)p.r(C)p.r(C)p.r(C)p.r(U)p.r(U)p.r(C)p.r(U)p.r(C)p.r(U)p.r(T)p.r(T)}$$$RNA1{StrandType:ss}|RNA2{StrandType:as}$” here?
**A.** 71%

**Q.** For “RNA1{m(A)p.r(A)p.m(G)p.r(G)p.m(A)p.r(G)p.m(A)p.r(U)p.m(C)p.r(A)p.m(A)p.r(C)p.m(A)p.r(U)p.m(U)p.r(U)p.m(U)p.r(C)p.m(A)p.r(T)p.r(T)}|RNA2{m(U)p.r(G)p.m(A)p.r(A)p.m(A)p.r(A)p.m(U)p.r(G)p.m(U)p.r(U)p.m(G)p.r(A)p.m(U)p.r(C)p.m(U)p.r(C)p.m(C)p.r(U)p.m(U)p.r(T)p.r(T)}$$$RNA1{StrandType:ss}|RNA2{StrandType:as}$”, which target mRNA knockdown is on record?
**A.** 75%

**Q.** For “RNA1{m(G)p.r(G)p.m(A)p.r(A)p.m(G)p.r(U)p.m(C)p.r(C)p.m(A)p.r(C)p.m(C)p.r(U)p.m(U)p.r(C)p.m(U)p.r(C)p.m(C)p.r(G)p.m(A)p.r(T)p.r(T)}|RNA2{m(U)p.r(C)p.r(G)p.r(G)p.r(A)p.r(G)p.r(A)p.r(A)p.r(G)p.r(G)p.m(U)p.r(G)p.r(G)p.r(A)p.r(C)p.m(U)p.m(U)p.r(C)p.r(C)p.r(T)p.r(T)}$$$RNA1{StrandType:ss}|RNA2{StrandType:as}$”, which target mRNA knockdown is on record?
**A.** 27%

**Q.** Which target mRNA knockdown does the source give for “RNA1{r(A)p.r(G)p.r(A)p.r(C)p.[fl2r](U)p.r(A)p.r(A)p.r(G)p.r(C)p.r(C)p.[fl2r](C)p.r(A)p.r(A)p.r(A)p.r(A)p.r(G)p.r(G)p.r(G)p.r(C)p.r(T)p.r(T)}|RNA2{r(G)p.r(C)p.r(C)p.r(C)p.r(U)p.r(U)p.r(U)p.[fl2r](U)p.r(G)p.r(G)p.r(G)p.r(C)p.r(U)p.[fl2r](U)p.r(A)p.r(G)p.r(U)p.r(C)p.r(U)p.r(T)p.r(T)}$$$RNA1{StrandType:ss}|RNA2{StrandType:as}$” here?
**A.** 45%

**Q.** For “RNA1{r(A)p.r(A)p.r(C)p.r(U)p.r(U)p.r(C)p.m(U)p.r(G)p.r(G)p.r(G)p.r(A)p.r(G)p.r(C)p.r(C)p.r(U)p.r(C)p.m(C)p.r(A)p.r(A)p.r(T)p.r(T)}|RNA2{r(U)p.m(U)p.r(G)p.r(G)p.r(A)p.r(G)p.r(G)p.r(C)p.r(U)p.r(C)p.r(C)p.m(C)p.r(A)p.r(G)p.r(A)p.r(A)p.r(G)p.r(U)p.r(U)p.r(T)p.r(T)}$$$RNA1{StrandType:ss}|RNA2{StrandType:as}$”, which target mRNA knockdown is on record?
**A.** 69%

**Q.** Which target mRNA knockdown does the source give for “RNA1{[lna](G)p.r(C)p.r(U)p.r(G)p.r(A)p.r(C)p.r(C)p.r(C)p.r(U)p.r(G)p.r(A)p.r(A)p.r(G)p.r(U)p.r(U)p.r(C)p.r(A)p.r(U)p.r(C)p.[lna](T)p.[lna](T)}|RNA2{r(G)p.r(A)p.r(U)p.r(G)p.r(A)p.r(A)p.r(C)p.r(U)p.r(U)p.r(C)p.r(A)p.r(G)p.r(G)p.r(G)p.r(U)p.r(C)p.r(A)p.r(G)p.r(C)p.[lna](T)p.[lna](T)}$$$RNA1{StrandType:ss}|RNA2{StrandType:as}$” here?
**A.** 61%

**Q.** With “RNA1{r(G)p.r(A)p.r(C)p.r(G)p.r(U)p.r(A)p.r(A)p.r(A)p.r(C)p.r(G)p.r(G)p.r(C)p.r(C)p.r(A)p.r(C)p.r(A)p.r(A)p.r(G)p.r(U)p.r(U)p.r(C)}|RNA2{r(A)p.r(C)p.r(U)p.r(U)p.r(G)p.r(U)p.r(G)p.r(G)p.r(C)p.r(C)p.r(G)p.r(U)p.r(U)p.r(U)p.r(A)p.r(C)p.r(G)p.r(U)p.[lna](C)p.[lna](G)p.r(C)}$$$RNA1{StrandType:ss}|RNA2{StrandType:as}$” as the substance, how does the target mRNA knockdown read?
**A.** 86.3%

**Q.** For “RNA1{[fl2r](G)p.m(A)p.[fl2r](C)p.m(G)p.[fl2r](U)p.m(A)p.[fl2r](A)p.m(A)p.[fl2r](C)p.m(G)p.[fl2r](G)p.m(C)p.[fl2r](C)p.m(A)p.[fl2r](C)p.m(A)p.[fl2r](A)p.m(G)p.[fl2r](U)p.m(U)p.[fl2r](C)}|RNA2{[fl2r](A)p.m(C)p.[fl2r](U)p.m(U)p.[fl2r](G)p.m(U)p.[fl2r](G)p.m(G)p.[fl2r](C)p.m(C)p.[fl2r](G)p.m(U)p.[fl2r](U)p.m(U)p.[fl2r](A)p.m(C)p.[fl2r](G)p.m(U)p.[fl2r](C)p.m(G)p.[fl2r](C)}$$$RNA1{StrandType:ss}|RNA2{StrandType:as}$”, which target mRNA knockdown is on record?
**A.** 23.8%

Reference: the OligoGym collection
